Data as given in patent publication US20120318262A1 (priority 2011, published 2012).

What was measured:
[1] = tested on: Wnt signaling; test: TOPflash reporter assay, HEK 293 STF cells treated with Wnt3a; format: cell-based
Experimental: Graph represents mean±s.e.m of TOPflash signal normalized to cell number (performed in quadruplicate). […] Data shown represent mean of four independent amplification reactions, graphed as relative expression to unstimulated cells. Expression levels were normalized to β-actin mRNA. Error bars, RQ values with 95% confidence.
(§1) CK1α immunoprecipitated from lysates was incubated with purified β-catenin (100 nM) in kinase assay containing (^γ32P)ATP. Samples were processed for SDS-PAGE/autoradiography. As control, immunoprecipitates were treated with the CK1 inhibitor, CKI-7 (1 μM). […] HA immunoprecipitates were analyzed by LCMS. Graph represents mean±s.e.m. of relative abundance of pyrvinium normalized to bead control (performed in triplicate). […] (FIG. 9C) Structure of VU-WS113. […] (FIG. 9F) CK1α (100 nM) was incubated with recombinant casein (100 nM) in the presence or absence of compounds in a kinase reaction containing [γ32P]ATP. […] Mean±s.e.m. is shown (performed in triplicates).

[2] = tested on: C57Bl/6 mice; format: in vivo; settings: p<0.05
From the text: FIGS. 5A-D. Mouse MI model. Representative mouse EKG tracings pre (FIG. 5A) and post (FIG. 5B) coronary artery ligation. […] Arrows mark lateral and posterior left ventricle (LV). LVIDD, LVIDS=LV internal diameter at systole and […], respectively. RV=right ventricle. […] Cardiac dimensions were obtained from 2-D guided M-mode images (100 frames/sec) and were read blinded using short axis and a parasternal long-axis views with the leading edge method. All echo measurements were averaged over 3 consecutive beats on unsedated mice at 7 and 30 days after infarction. Statistical significance assessed by the Wilcoxon rank sum test.
Ventricular remodeling and cardiac functional parameters will be assessed by echo.
Mammalian cardiomyocytes irreversibly withdraw from the cell cycle soon after birth and undergo terminal differentiation. […] Therefore, cardiac injury causes permanent myocardial loss and cardiac dysfunction. […] Proliferation was assessed by immunostaining for Ki-67.

[3] = tested on: C57Bl/6 mice; test: 2 mm ear punch wound model; format: in vivo; settings: day 30
From the text: (FIG. 8A) Low magnification (4×) view of H&E stained slide showing epithelial repair of wounded skin treated with 211 at 30 days after injury. […] (FIGS. 8C-D) represent H&E of low (10×) and high (20×) magnification view of pyrvinium-treated ears. (FIGS. 8E-F) Trichrome blue staining showing low (FIG. 8E, 10×) and high power (FIG. 8F, 20×) view of pyrvinium-repaired ear.
The ears of six month old C57BL/6 mice were wounded by a 2 mm ear punch (n=3). […] The wounds were monitored over a period of 1 month and the digital photographs of the healing ears were taken periodically. […] The mice were sacrificed at day 30 and histological analysis of the wounded ear was performed.
FIGS. 8C-D show H&E stained slide of low (10×) and high (20×) magnifications of pyrvinium-treated ears.

[4] = molecular target: CK1α (Homo sapiens, UniProt P48729); test: kinase activity of purified recombinant CK1α (Tau, casein substrates; kinase panel); format: biochemical
Sequence of CK1α (P48729 whole entry): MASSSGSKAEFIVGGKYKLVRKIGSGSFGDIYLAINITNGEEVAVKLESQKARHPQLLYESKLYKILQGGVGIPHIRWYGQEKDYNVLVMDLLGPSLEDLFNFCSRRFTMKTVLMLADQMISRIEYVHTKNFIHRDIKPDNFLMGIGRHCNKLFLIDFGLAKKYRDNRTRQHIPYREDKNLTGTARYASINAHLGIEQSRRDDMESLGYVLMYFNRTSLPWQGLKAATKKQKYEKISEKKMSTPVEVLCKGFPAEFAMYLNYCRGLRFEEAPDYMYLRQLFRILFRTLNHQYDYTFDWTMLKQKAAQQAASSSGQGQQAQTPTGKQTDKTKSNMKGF
Experimental: as §1, with “LCMS.” for “LCMS. Graph represents mean±s.e.m. of relative abundance of pyrvinium normalized to bead control (performed in triplicate).”

[5] = tested on: C57Bl/6 mice; test: myocardial infarct model, daily IP injection, Ki67/Sca1 histology
From the text: Myocardial infarcts were induced in male C57Bl/6 mice by coronary ligation. A sham-injured cohort underwent all aspects of the procedure except ligation of the coronary artery. […] Mice were sacrificed (n=3 for each time point and each condition) on days 7, 9 and 15 after injury. Hearts were isolated for histologic analysis.

Row | activation of CK1α [4] | Structure (SMILES) | IC50 ([1]; Wnt3a-conditioned media, 24 hours, read-out: IC50 of TOPflash (Wnt signaling) inhibition) [µM] | average difference in fractional shortening between days 7 and 30 [2] | histology of wounded ear ([3]; listed as Cmpd 113) | histology of wounded ear ([3]; listed as compound 113) | inhibition of TOPflash / Wnt signaling ([1]; Wnt3a) | Ki-67+ cells co-labeled with Sca1+ antibody ([5]; 40 μg/kg IP) | Sca1+ CPCs share of Wnt-inhibitor responsive population ([5]; 40 μg/kg IP) [%] | increase in left ventricular, peri-infarct Ki67+ cells ([5]; 40 μg/kg IP daily through day 6, 7-9 days after MI) | post-infarct proliferation of cardiac progenitors ([5]; 7 d after injury, control C-211)
1 |  | Cc1cc(/C=C/c2ccc3cc(N(C)C)ccc3[n+]2C)c(C)n1-c1ccccc1 [pyrvinium, 6-(Dimethylamino)-2-[2-(2,5-dimethyl-1-phenyl-1H-pyrrol-3-yl)ethenyl]-1-methylquinolinium, reference compound] | ~0.01 | 22.3±5.2 |  |  |  |  |  |  | 
2 | activate CK1α | Cc1cc(C(=O)Nc2ccc3cc(CN4CCOCC4)ccc3n2)c(C)n1-c1ccccc1 [VU-WS113, 2,5-dimethyl-N-(6-(morpholinomethyl)quinolin-2-yl)-1-phenyl-1H-pyrrole-3-carboxamide] |  |  | injured hole was repaired | Injured hole was repaired | retained the capacity to inhibit Wnt signaling | at least 50% | > 60 | 10-13 fold | significantly enhances post-infarct proliferation of cardiac progenitors
